Assay results taken from patent US20060223779A1, “Method of screening for inhibitors of human Fatty Acid-CoA Ligase 4” (priority 2000, published 2006).

How the values were obtained:
[1] = test system: FACL4/COX-2 double stable cells; assay: Cell survival of FACL4/COX-2 double stable cells after TNFα or A23187; assay type: cell-based, human; settings: TNFα 1 ng/ml or A23187 5 μM, 72 hr, n=3
Protocol: (§1) FIG. 5: Enzymatic “sinks” for free arachidonic acid protect against TNFα_ and calcium ionophore_mediated cell killing. (A) Determination of cell survival. The cells were induced (+Pon) or not (−Pon) for 24 hr, and TNFα (1 ng/ml) or the calcium ionophore A23187 (5 μM) was added, and the cells were incubated for another 72 hr. The surviving fraction was determined and is plotted relative to that of the same line without TNFα or A23187 treatment. Ctl denotes control cells harboring an empty vector, while FACL4/COX-2 denotes the double stable line. (B) Measurement of the free AA. The FACL4/COX-2 cells were prelabeled with [^3H] AA, induced, and stimulated with A23187 (5 μM), and [^3H] AA release was measured at the indicated time intervals. The values are from one experiment that is representative of four independent determinations.
Stable cell lines. The ecdysone inducible system (Invitrogen) was used to construct stable lines over-expressing human FACL4, COX-2, COX-2 mutant, and both FACL4 and COX-2. […] The cDNAs were cloned into pIND(SP1) (Neomycin^r). The cDNA constructs, or the empty vector pIND(SP1) were transfected into EcR293 cells, which were then selected in 400 μg/ml geneticin and 400 μg/ml zeocin. A number of single colonies were screened for over-expression of FACL4, COX-2 wild type, and COX-2 mutant by immunoblotting against anti-FACL4 (See Y. Cao et al., 467 FEBS Lett. 263-267 (2000)), and anti-COX-2 antibodies (a gift from Dr. Jacques Maclouf), and by measurement of the CoA ligase activity for FACL4 (See D. B. Wilson et al., 257 J. Biol. Chem. 3510-3515 (1992)), or the PGE2 secretion for COX-2 wild type (ELISA assay, Assay Design, Inc.). The double stable line was generated by stably transfecting the COX-2 stable cells with another pIND(SP1)-FACL4 cDNA construct, in which the FACL4 cDNA was cloned into a pIND(SP1) (hygromycin^r) vector. The cells were selected in 400 μg/ml geneticin, 400 μg/ml zeocin, and 50 μg/ml hygromycin B. The positive colonies were screened as described above.
(§2) Cell survival. Cell viability was determined with the crystal violet staining (See M. Hayakawa et al., 268 J. Biol. Chem. 11290-11295 (1993).

FACL4/COX-2 cells = assay: [3H] arachidonic acid release after A23187 (pulse-chase); assay type: cell-based, human; settings: A23187 5 μM
Protocol: as §1
Arachidonic acid release. Cells were plated on 6 well-plates precoated with poly-L-lysine at 8×10^5 cells per well. They were then prelabeled with [^3H] AA (0.4 μCi/ml medium) (91.8 Ci/mmol, 100 μCi/ml, NEN) for 24 hr. After a wash, serum-free DMEM supplemented with 1% BSA (fatty acid free) was added. […] The AA release stimulated by A23187 was calculated by subtracting the released AA by unstimulated cells, from that by A23187-stimulated counterparts.

COX-2 stable 293 cells = assay: Apoptosis in stably transfected 293 cells with inducible COX-2 over-expression; assay type: cell-based, human
Protocol: (A) Conditional expression level of FACL4 and COX-2 in stably transfected lines. Cells were treated with (+) or without (−) ponasterone (1 μg/ml) for 48 hr, and Western blotting was carried out with anti-FACL4 and anti-COX-2 antibodies, respectively. The loading was normalized with an anti-β actin antibody (ICN Biomedicals). […] The 293 cells stably transfected with an empty control vector (Ctl), FACL4 cDNA, COX-2 cDNA, and both FACL4 and COX-2 cDNAs were uninduced (−Pon) or induced for over-expression (+Pon) as in A. AA (300 μM) was added after 24 hr of induction and apoptosis was determined 44 hr later. […] The plot is a comparison of the relative apoptosis levels among the stable lines and is representative of three independent experiments. The values shown are the averages of triplicate determinations. […] Cells were uninduced (−Pon) or induced for over-expression as above. […] COX inhibitors were administered 6 hr later as indicated. AA (300 μM) was then added after 2 hr and apoptosis was determined 44 hr later. The plot is prepared as in B, and is a representative result from three independent experiments, in which triplicates were performed. Wt=wild-type, Mut=mutant, Met=50 μM 6-methoxy-2-naphthyl acetic acid, Indo=10 μM indomethacin. […] The COX-2, FACL4/COX-2 stable and control cells carrying an empty vector were induced for 48 hr, washed and incubated with 20 μM AA at 37° C. for 30 min. The amount of PGE2 synthesized was determined by ELISA. […] (E) The levels of free AA in the stable lines. The [^3H]
(§3) Cell Death Detection ELISA. Cells were plated on 96 well-plates at 1×10^4 cells per well. AA was applied and apoptotic death was determined after 44 hr with the Cell Death Detection ELISA (Boehringer Mannheim).
Stable cell lines. The ecdysone inducible system (Invitrogen) was used to construct stable lines over-expressing human FACL4, COX-2, COX-2 mutant, and both FACL4 and COX-2. […] The cDNAs were cloned into pIND(SP1) (Neomycin^r). The cDNA constructs, or the empty vector pIND(SP1) were transfected into EcR293 cells, which were then selected in 400 μg/ml geneticin and 400 μg/ml zeocin. […] The double stable line was generated by stably transfecting the COX-2 stable cells with another pIND(SP1)-FACL4 cDNA construct, in which the FACL4 cDNA was cloned into a pIND(SP1) (hygromycin^r) vector. The cells were selected in 400 μg/ml geneticin, 400 μg/ml zeocin, and 50 μg/ml hygromycin B. The positive colonies were screened as described above.

293 cells [2] = assay: Cell survival (crystal violet staining) in 293 cells; assay type: cell-based, human; settings: 293 cells, increasing exogenous AA concentration, 44 hr
Protocol: (§4) FIG. 3: Arachidonic acid induces apoptosis via activation of caspase 3. (A) Determination of cell survival. AA was added to 293 cells at the indicated concentrations and the surviving fraction of cells was determined after 44 hr. The values shown are relative to the viability of cells that were not exposed to AA. (B) Increased apoptosis in cells exposed to AA. Cells were treated with AA (300 μM) or palmitic acid (300 μM) under the same conditions as in A, and then apoptosis was detected with an ELISA. The mean values from triplicate determinations are shown. […] The 293 cells were treated with AA (300 μM; +AA) or vehicle alone (−AA) for 44 hr. The nuclei were stained with DAPI, and DNA strand breaks in individual cells were detected with a fluorescent TUNEL assay. The upper panels are the same field of cells (−AA) photographed under UV (left panels) and FITC filters (right panels). The lower panels illustrate apoptotic cells (+AA). The magnification is 80×. (D) Immunostaining with an anti-active caspase 3 antibody. Upper panels, control cells (−AA); lower panels, cells exposed to 300 μM AA. Left panels, DAPI staining; right panels, immunostaining with an antibody selective for active caspase 3. The magnification is 100×. […] The 293 cells were preincubated with caspase inhibitors (including DMQD, a caspase 3 inhibitor, and YVAD, a caspase 1 and 4 inhibitor (Peptide Institute)) for 1 hr at the indicated concentrations, AA (300 μM) was added, and apoptosis was determined 44 hr later. The values represent the means from triplicate determinations.
as §2

293 cells [3] = assay: Lipid peroxidation assay (MDA and 4-HNE) in 293 cells; assay type: cell-based, human
Protocol: FIG. 6: Cells exposed to AA show increased lipid peroxidation; apoptosis is blocked by antioxidants and Bcl-2. (A) The level of lipid oxidation products. The 293 cells were treated with AA at the indicated concentrations for 48 hr. The data presented are from one experiment that is representative of two independent experiments. […] Antioxidants were applied to 293 cells at the indicated concentration for 1 hr, and then AA (200 μM) was added. Apoptosis was determined after 44 hr and is shown relative to the level in control cells. […] Cells were transfected with the empty vector (Ctl) or with a cDNA encoding Bcl-2 and then were exposed to AA (300 μM). The level of apoptosis was determined after 44 hr. The values shown indicate the apoptosis level relative to control cells, and represent the means of triplicate determinations (P<0.05). The expression of Bcl-2 was detected by Western blotting. (D) The level of Bcl-2 expression in the stable cells. The stably transfected cells were induced, or not, with ponasterone for 24 or 48 hr. Cell lysates were blotted with an antibody to Bcl-2. Normalization was performed with an anti-β-actin antibody.
Lipid peroxidation assay. Cells were plated and treated with AA for 48 hr. […] The cellular malondialdehyde (MDA) and 4-hydroxynonenal (4-HNE) levels were determined with the lipid peroxidation assay kit (Calbiochem).

293 cells [4] = assay: Apoptosis by Cell Death Detection ELISA in 293 cells; assay type: cell-based, human; settings: 44 hr
Protocol: as §4, §3

caspase 3 = assay: Caspase 3-like activity in AA-treated cells; assay type: cell-based; settings: not shown

CNc1ccc2oc(C[C@H]3O[C@@]4(CC[C@H]3C)O[C@H]([C@H](C)C(=O)c3ccc[nH]3)[C@H](C)C[C@H]4C)nc2c1C(=O)O [A23187]
surviving fraction, induced cells ([1]; FACL4/COX-2 double stable cells induced with ponasterone): 67.8% | surviving fraction, uninduced cells ([1]; FACL4/COX-2 double stable cells without induction): 37.8% | AA release to the medium in response to A23187, control cells (FACL4/COX-2 cells; control cells): released a large amount of AA | AA release to the medium in response to A23187, over-expression of FACL4 and COX-2 (FACL4/COX-2 cells; induced FACL4/COX-2 cells): completely abolished

CCCCC/C=C\C/C=C\C/C=C\C/C=C\CCCC(=O)O [AA, Arachidonic acid]
fold-increase in apoptosis after fatty acid treatment (COX-2 stable 293 cells; 200 μM): 8.5 fold | reduction of fatty acid-induced apoptosis by inducing COX-2 over-expression (COX-2 stable 293 cells; COX-2 over-expression induced, n=3): 36.7% | cell survival, % of the control (293 cells [2]): 23% | formation of lipid peroxidation products (293 cells [3]; 293 cells exposed to AA, 48 hr): enhanced formation of malondialdehyde and 4-hydroxy-2(E)-nonenal | apoptosis (mono- and oligo-nucleosomes) over the control (293 cells [4]; 293 cells, 300 μM): 18 fold | maximal increase in caspase 3-like activity compared to control cells (caspase 3): ~4.5 fold | time of peak caspase 3-like activity (caspase 3): 17 h

z-DMQD-fmk
effect on generation of peroxidized lipids (293 cells [3]; AA-exposed cells, not shown): did not block the generation of peroxidized lipids | blocking of AA-induced apoptosis by caspase inhibitor (293 cells [4]; 293 cells preincubated 1 hr with inhibitor, AA 300 μM): significantly blocked apoptosis
